The target in data set [1] is T1, HPK1 kinase (Homo sapiens, UniProt Q92918).
T1 construct: purchased Carna 07-410
T1 sequence (Q92918 1-346 limits assumed): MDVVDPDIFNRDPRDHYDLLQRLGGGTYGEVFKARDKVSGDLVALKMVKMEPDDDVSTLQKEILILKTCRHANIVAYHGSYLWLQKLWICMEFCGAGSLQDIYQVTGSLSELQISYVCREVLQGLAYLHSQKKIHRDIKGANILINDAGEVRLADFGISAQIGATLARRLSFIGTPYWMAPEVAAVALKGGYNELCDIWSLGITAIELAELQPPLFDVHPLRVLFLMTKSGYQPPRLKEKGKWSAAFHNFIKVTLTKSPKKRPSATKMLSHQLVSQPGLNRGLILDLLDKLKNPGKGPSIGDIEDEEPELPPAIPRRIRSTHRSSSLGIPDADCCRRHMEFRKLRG
Put plainly: HPK1 kinase assay (1 mM ATP). The data set is classed as biochemical. The procedure: Test example 5: HPK1 kinase assay (1 mM ATP)
The kinase HPK1 (Carna, Cat.No 07-410) was prepared into 2× kinase solution using 1× kinase buffer. The substrate Fluorescein-PKC (Invitrogen, Cat. No. PV3506) and ATP (working concentration: 1 mM) (Sigma, Cat. No. 2383-5G) were prepared into 2× substrate solution using 1×kinase buffer. The detection reagent was diluted to 2-fold the final concentration using an antibody diluent. 100 nL of compounds at different concentrations and 5 µL of kinase solution were added to each well of a 384-well plate, and the mixture was incubated at room temperature for 10 minutes. After the incubation was completed, 5 µL of substrate solution was added to each well, and the resulting mixture was reacted at room temperature for 90 minutes. After the reaction was completed, 10 µL of detection reagent was added to each well to terminate the reaction, and the mixture was incubated at room temperature for 60 minutes. Fluorescence readings were detected using an Envision instrument with excitation at 320 nm and emission at 520 nm and 495 nm. IC50 value was calculated using XLFit excel add-in version 5.4.0.8 software. The calculation formula of the inhibition rate was shown in formula 5-1, wherein max is the Ratio of the DMSO control, min is the Ratio of the negative control without enzyme, and sample is the Ratio of the compound. Ratio = RFU520nm /RFU495nm [formula] Inhibition% = (max−sample)/(max−min) × 100% [formula] Table 5-1 Inhibitory activity of test compounds against HPK1 kinase

The target in data set [2] is T2, HPK1 protein (Homo sapiens, UniProt Q92918).
T2 construct: host or cells: Jurkat cells
T2 sequence (Q92918 whole entry): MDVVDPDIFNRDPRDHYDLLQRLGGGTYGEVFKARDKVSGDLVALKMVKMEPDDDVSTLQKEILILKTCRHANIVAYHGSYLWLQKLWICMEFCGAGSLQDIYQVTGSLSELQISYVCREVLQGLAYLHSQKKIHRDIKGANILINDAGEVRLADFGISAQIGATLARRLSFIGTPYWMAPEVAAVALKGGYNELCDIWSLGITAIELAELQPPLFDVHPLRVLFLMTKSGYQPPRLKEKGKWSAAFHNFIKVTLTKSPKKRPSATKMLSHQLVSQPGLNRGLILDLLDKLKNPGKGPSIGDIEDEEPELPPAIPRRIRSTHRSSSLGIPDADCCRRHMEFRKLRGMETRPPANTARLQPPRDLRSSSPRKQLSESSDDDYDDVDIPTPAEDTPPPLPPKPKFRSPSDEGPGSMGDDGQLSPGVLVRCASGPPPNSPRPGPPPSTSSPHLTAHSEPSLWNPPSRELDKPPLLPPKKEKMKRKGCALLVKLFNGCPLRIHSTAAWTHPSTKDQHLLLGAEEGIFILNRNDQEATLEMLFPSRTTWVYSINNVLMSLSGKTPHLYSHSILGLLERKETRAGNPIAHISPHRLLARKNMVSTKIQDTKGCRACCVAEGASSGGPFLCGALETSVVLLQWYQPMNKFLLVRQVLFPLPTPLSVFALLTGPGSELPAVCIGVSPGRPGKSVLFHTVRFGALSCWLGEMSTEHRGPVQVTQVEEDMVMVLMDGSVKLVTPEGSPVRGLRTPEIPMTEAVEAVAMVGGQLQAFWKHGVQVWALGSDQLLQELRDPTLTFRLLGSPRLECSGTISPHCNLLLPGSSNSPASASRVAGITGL
Put plainly: Detection of HPK1 protein expression level in Jurkat cells (24 h). Format: cell-based. The note with it: 24 hours incubation. The procedure: Test example 4: Detection of HPK1 protein expression level in Jurkat cells (24 h)
Jurkat cells from ATCC were placed in a RPMI-1640 complete medium (supplemented with 10% FBS and 1% penicillin-streptomycin solution) and cultured at 37°C and 5% CO2. The cells in the logarithmic growth phase were collected, the cell density was adjusted to 5 × 10^5 cells/well with the culture medium, and the cells were added to a 6-well cell culture plate at a volume of 1 mL/well. The compound to be tested was prepared to 2-fold the final concentration, 1 mL of the compounds at different concentrations were added to administration wells, a medium containing 0.2% DMSO was added to control wells, and the plate was incubated at 37°C and 5% CO2 for 24 hours. The cells were collected into a 1.5 mL centrifuge tube, 30 µL of RIPA lysis buffer (containing 1X protease inhibitor cocktail) was added, and the cells were lysed on ice for 15 minutes and centrifuged at 12000 rpm/min at 4°C for 10 minutes. The supernatant was collected and the protein content was determined using the BCA method. The protein sample to be tested was diluted to 0.2 mg/mL, HPK1 was detected using a fully automated protein expression quantitative analyser (ProteinSimple), and the internal reference protein was β-actin (all antibodies were from CST). The software (Compass for SW) of the fully automated protein expression quantitative analyser was used to process the raw data and calculate the peak area after internal reference normalisation and the HPK1 degradation rate relative to the control group. The HPK1 degradation rate was calculated according to formula 4-1, where Aadministration well is the relative peak area of the administration group after internal reference normalisation, and Acontrol well is the relative peak area of the vehicle control group after internal reference normalisation. DC50 values were calculated using a four-parameter non-linear fitting model in Graphpad 8.3.0 software. HPK1_degradation % = 100−(Aadministration well/Acontrol well×100%) [formula] Table 4-1 Degradation activity of test compounds against HPK1 protein in Jurkat cells (24 h)

Data set [3] in a line: Pharmacokinetic test in mice. The data set is classed as in vivo, ICR mice. The note with it: mouse, plasma. Here is the method: Test example 6: Pharmacokinetic test in mice
Experimental objective: In this experiment, a single dose of test substances was administered to ICR mice intravenously and intragastrically, the concentrations of the test compounds in plasma of mice were measured, and the pharmacokinetic characteristics and bioavailability of the test compounds in mice were evaluated.
Experimental animals: Male ICR mice, 20-35 g, purchased from Chengdu Dossy Experimental Animals Co., Ltd. (SCXK (CHUAN) 2020-030).
Experimental method: On the day of the experiment, the ICR mice were randomly grouped according to their body weights. The animals were fasted but with water available overnight before the administration, and fed 4 h after the administration.
Sampling: Blood was taken from the orbits of the mice at specified time points, and placed in an EDTAK2 centrifuge tube. Centrifugation was performed at 5000 rpm at 4°C for 10 min, and the plasma was collected.
Time points for plasma collection in G1 and G1-2 groups: 0, 5 min, 15 min, 30 min, 1 h, 2 h, 4 h, 7 h, and 24 h.
Time points for plasma collection in G2 and G2-2 groups: 0, 5 min, 15 min, 30 min, 1 h, 2 h, 4 h, 7 h, and 24 h.
Before analysis and detection, all the samples were stored at -60°C or lower. The samples were analysed quantitatively by LC-MS/MS. Table 6-1 PK data of test compound drug in mice

The mark [4] stands for this setting: ATP working concentration: 1 mM.
Where [5] appears, read: ATP working concentration: 1 mM, read-out: IC50.

Molecules are shown by their SMILES. Structures can show the parent of a compound that is named as a salt. Where two headings read alike, the source gives them in different places.

Usually IC50 stands for the concentration that inhibits the measured activity by half. As a reminder, the clearance is a measure of how efficiently the substance is removed, as volume per time. A low value points to a low capacity for elimination. As usually defined, the half-life is the time needed for the level to fall by half in the phase considered. A higher half-life goes with slow decline. What is called AUC is the area under the concentration-time curve, a measure of exposure. A higher AUC goes with more exposure. In general, Cmax refers to the maximum level reached in the sampled fluid or tissue.

On to `O=C1CCN(c2cc3c(cc2F)N2CCN(CC4CCN(c5ccc(Nc6ccc(-c7cnc8cc(F)ccn78)c7c6C(=O)NC7)nc5CN5CCC(F)(F)C5)CC4)CC2CC3)C(=O)N1` (centres unmarked) [Trifluoroacetic acid salt of compound 25], for which the IC50 in data set [1] (setting [4]) is less than 50 nM.

For the molecule `O=C1CCN(c2cc3c(cc2F)N2CCN(CC4CN(c5ccc(Nc6ccc(-c7cnc8cc(F)ccn78)c7c6C(=O)NC7)nc5)C4)C[C@H]2CC3)C(=O)N1` [Trifluoroacetic acid salt of compound 21], the IC50 in data set [1] was less than 50 nM.

Take `N#Cc1ccn2c(-c3ccc(Nc4ccc(N5CCC(N6CCN7c8cc(F)c(N9CCC(=O)NC9=O)cc8CC[C@H]7C6)CC5)cn4)c4c3CNC4=O)cnc2c1` [Trifluoroacetic acid salt of compound 45]: the IC50 in data set [1] is less than 50 nM.

`O=C1CCN(c2cc3c(cc2F)N2CCN(C4CCC5(CC4)CCN(c4ccc(Nc6ccc(-c7cnc8cc(F)ccn78)c7c6C(=O)NC7)nc4)CC5)C[C@H]2CC3)C(=O)N1` [Trifluoroacetic acid salt of compound 44] came in with an IC50 in data set [1] (setting [4]) of less than 50 nM.

In turn, `O=C1CCC(c2ccc(N3CCC(CN4CCC(c5ccc(Nc6ccc(-c7cnc8cc(F)ccn78)c7c6C(=O)NC7)nc5)CC4)CC3)cc2F)C(=O)N1` (centres unmarked) [Trifluoroacetic acid salt of compound 17] yielded an IC50 in data set [1] of less than 50 nM.

With `CN(C)Cc1nc(Nc2ccc(-c3cnc4cc(F)ccn34)c3c2C(=O)NC3)ccc1C1CCN(CC2CCN(c3ccc(N4CCC(=O)NC4=O)c(F)c3)CC2)CC1` [Trifluoroacetic acid salt of compound 9], the half-inhibitory concentration (IC50) in data set [1] is less than 50 nM. In data set [2], this molecule displayed a DC50 of less than 20 nM.

`O=C1CCN(c2cc3c(cc2F)N2CCN(CC4CCN(c5ccc(Nc6ccc(-c7cnc8cc(F)ccn78)c7c6C(=O)NC7)nc5CN5CC(F)(F)C5)CC4)C[C@H]2CC3)C(=O)N1` [Trifluoroacetic acid salt of compound 23]: the IC50 in data set [1] (setting [4]) was less than 50 nM.

`O=C1CCN(c2ccc(N3CCC(CN4CCC(c5ccc(Nc6ccc(-c7cnc8cc(F)ccn78)c7c6C(=O)NC7)nc5)CC4)CC3)cc2F)C(=O)N1` [Trifluoroacetic acid salt of compound 18] registered an IC50 in data set [1] of less than 50 nM.

The molecule `N#Cc1ccn2c(-c3ccc(Nc4ccc(N5CCC6(CC5)CC(N5CCN7c8cc(F)c(N9CCC(=O)NC9=O)cc8CC[C@H]7C5)C6)cn4)c4c3CNC4=O)cnc2c1` [Trifluoroacetic acid salt of compound 43] displayed an IC50 in data set [1] (setting [4]) of less than 50 nM.

`CN(C)Cc1nc(Nc2ccc(-c3cnc4cc(F)ccn34)c3c2C(=O)NC3)ccc1N1CCC(CN2CCN3c4cc(F)c(N5CCC(=O)NC5=O)cc4CC[C@H]3C2)CC1` [Trifluoroacetic acid salt of compound 10]: the half-inhibitory concentration (IC50) in data set [1] (setting [4]) is less than 50 nM.

Consider `O=C1CCC(c2ccc(N3CCN(CC4CCN(c5ccc(Nc6ccc(-c7cnc8cc(F)ccn78)c7c6C(=O)NC7)nc5)CC4)CC3)cc2F)C(=O)N1` (single isomer, unassigned) [Compound 1-2], for which, in data set [1] (setting [5]), the IC50 is less than 50 nM.

For `O=C1CC[C@H](NC(=O)c2cc3c(cc2F)N2CCN(C4CC5(CCN(c6ccc(Nc7ccc(-c8cnc9cc(F)ccn89)c8c7C(=O)NC8)nc6)CC5)C4)C[C@@H]2CC3)C(=O)N1` [Trifluoroacetic acid salt of compound 33], in data set [1] (setting [4]), the half-maximal inhibitory concentration (IC50) was less than 50 nM.

As for `O=C1CCN(c2cc3c(cc2F)N2CCN(C4CCC5(CC4)CCN(c4ccc(Nc6ccc(-c7cnc8cc(F)ccn78)c7c6C(=O)NC7)nc4)CC5)C[C@@H]2CC3)C(=O)N1` [Trifluoroacetic acid salt of compound 47], the IC50 in data set [1] (setting [4]) was less than 50 nM.

`O=C1CCN(c2cc3c(cc2F)N2CCN(CC4CCN(c5ccc(Nc6ccc(-c7cnc8cc(F)ccn78)c7c6C(=O)NC7)nc5CN5CC[C@@H](F)C5)CC4)C[C@H]2CC3)C(=O)N1` [Trifluoroacetic acid salt of compound 30]: the IC50 in data set [1] (setting [4]) was less than 50 nM.

For `N#Cc1ccn2c(-c3ccc(Nc4ccc(N5CCC6(CC5)CC(N5CCN7c8cc(F)c(N9CCC(=O)NC9=O)cc8CC[C@@H]7C5)C6)cn4)c4c3CNC4=O)cnc2c1` [Compound 48], the IC50 in data set [1] (setting [4]) is less than 50 nM. In data set [3] (IV, 1 mg/kg), this molecule had a clearance of 1.67 mL/min/kg and a half-life of 5.3 h. Moreover, in data set [3] (po, i. g., 10 mg/kg), the AUC turned out to be 25900 ng·h/mL, the maximum concentration (Cmax) amounted to 2300 ng/mL and the half-life was 4.9 h.

As for `N#Cc1ccn2c(-c3ccc(Nc4ccc(N5CCC6(CCC(N7CCN8c9cc(F)c(N%10CCC(=O)NC%10=O)cc9CC[C@@H]8C7)CC6)CC5)cn4)c4c3CNC4=O)cnc2c1` [Trifluoroacetic acid salt of compound 46], in data set [1] (setting [4]), the half-inhibitory concentration (IC50) is less than 50 nM.

Take `O=C1CCN(c2cc3c(cc2F)N2CCN(CC4CCN(c5ccc(Nc6ccc(-c7cnc8cc(F)ccn78)c7c6C(=O)NC7)nc5CN5CC[C@H](F)C5)CC4)C[C@H]2CC3)C(=O)N1` [Trifluoroacetic acid salt of compound 29]: in data set [1] (setting [4]), the IC50 was less than 50 nM.

In the case of `O=C1CCN(c2cc3c(cc2F)N2CCN(CC4CCN(c5ccc(Nc6ccc(-c7cnc8cc(F)ccn78)c7c6C(=O)NC7)nc5CN5CC(F)(F)C5)CC4)C[C@@H]2CC3)C(=O)N1` [Trifluoroacetic acid salt of compound 24], in data set [1] (setting [4]), the 50% inhibitory concentration (IC50) was less than 50 nM.

As to `CN(C)Cc1nc(Nc2ccc(-c3cnc4cc(F)ccn34)c3c2C(=O)NC3)ccc1C1CCN(CC2(F)CCN(c3ccc(N4CCC(=O)NC4=O)c(F)c3)CC2)CC1` [Compound 38], in data set [1] (setting [5]), the 50% inhibitory concentration (IC50) is less than 50 nM.

Regarding `CN(C)Cc1nc(Nc2ccc(-c3cnc4cc(F)ccn34)c3c2C(=O)NC3)ccc1N1CCC(CN2CCN3c4cc(F)c(N5CCC(=O)NC5=O)cc4CC[C@@H]3C2)CC1` [Trifluoroacetic acid salt of compound 11], the IC50 in data set [1] (setting [4]) was less than 50 nM.

In turn, `O=C1CCN(c2cc3c(cc2F)N2CCN(CC4CCN(c5ccc(Nc6ccc(-c7cnc8cc(F)ccn78)c7c6C(=O)NC7)nc5CN5CCC(F)(F)C5)CC4)C[C@H]2CC3)C(=O)N1` [Trifluoroacetic acid salt of compound 28] showed an IC50 in data set [1] (setting [4]) of less than 50 nM.

In data set [1], `CN(C)Cc1nc(Nc2ccc(-c3cnc4cc(F)ccn34)c3c2C(=O)NC3)ccc1N1CCC(CN2CCN(c3ccc(N4CCC(=O)NC4=O)c(F)c3)CC2)CC1` [Trifluoroacetic acid salt of compound 12] yielded an IC50 of less than 50 nM.

The molecule `O=C1CCN(c2cc3c(cc2F)N2CCN(CC4CN(c5ccc(Nc6ccc(-c7cnc8cc(F)ccn78)c7c6C(=O)NC7)nc5)C4)C[C@@H]2CC3)C(=O)N1` [Trifluoroacetic acid salt of compound 22] had an IC50 in data set [1] of less than 50 nM.

For the origin of these results see patent EP4810494A1, “HPK1 DEGRADATION AGENT AND USE THEREOF IN FIELD OF MEDICINE” (Haisco Pharmaceutical Group Co., Ltd., priority 2023, dated 2025).
